Among the data in patent US8530489B2 (Vertex Pharmaceuticals Incorporated, priority 2006, dated 2013) are Ki values, retold here.

Bounds are passed on as bounds.

For the assay, the target named is PLK1 (Homo sapiens, UniProt P53350). Kind of assay: PLK1 Inhibition Assay I (radioactive-phosphate incorporation). Format: biochemical. To be noted: Ki(app); PLK1 Inhibition Assay I or II (table does not say which). The procedure, abridged: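 Ki(app) values came from non-linear regression of initial rates after background subtraction, with phosphopeptide measured by phosphocellulose filter binding and scintillation counting. PLK1 at 2 nM was preincubated with compound (typically from 10 μM, 2-fold dilutions) for 10 min, then run 240 min at 25° C with 350 μM [γ-33P]ATP and 450 μM peptide substrate in HEPES pH 7.5 buffer.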
Sequence of PLK1 (P53350 whole entry): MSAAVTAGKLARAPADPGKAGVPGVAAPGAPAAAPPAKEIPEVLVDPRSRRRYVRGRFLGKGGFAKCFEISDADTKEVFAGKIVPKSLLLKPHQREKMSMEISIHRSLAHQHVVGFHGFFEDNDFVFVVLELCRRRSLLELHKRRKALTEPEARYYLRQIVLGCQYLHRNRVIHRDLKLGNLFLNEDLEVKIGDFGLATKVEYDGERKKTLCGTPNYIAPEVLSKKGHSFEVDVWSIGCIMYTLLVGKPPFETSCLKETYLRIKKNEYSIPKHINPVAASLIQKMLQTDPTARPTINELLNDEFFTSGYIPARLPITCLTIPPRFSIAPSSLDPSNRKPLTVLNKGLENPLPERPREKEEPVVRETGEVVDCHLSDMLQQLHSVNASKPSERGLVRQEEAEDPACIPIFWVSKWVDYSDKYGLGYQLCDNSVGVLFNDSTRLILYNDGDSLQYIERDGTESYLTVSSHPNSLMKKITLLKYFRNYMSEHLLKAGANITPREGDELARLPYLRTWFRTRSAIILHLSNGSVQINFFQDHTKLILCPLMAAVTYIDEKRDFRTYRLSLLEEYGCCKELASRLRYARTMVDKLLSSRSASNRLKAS
Turning to `C[C@@H](Nc1ncc(C#N)c(-c2c[nH]c3ncc(C(F)(F)F)cc23)n1)c1ccc(NS(C)(=O)=O)c(F)c1` [Compound I-177, N-(4-((1R)-1-(5-cyano-4-(5-(trifluoromethyl)-1H-pyrrolo[2,3-b]pyridin-3-yl)pyrimidin-2-ylamino)ethyl)-2-fluorophenyl)methanesulfonamide], the Ki was less than 3 nM.

Take `CC(Nc1ncc(C#N)c(-c2c[nH]c3ncc(C(F)(F)F)cc23)n1)C1(F)CCN(C(=O)CN)CC1` (stereo not drawn) [Compound I-234, 2-(1-(1-(2-aminoacetyl)-4-fluoropiperidin-4-yl)ethylamino)-4-(5-(trifluoromethyl)-1H-pyrrolo[2,3-b]pyridin-3-yl)pyrimidine-5-carbonitrile]: the Ki is less than 3 nM.

As for `CC(Nc1ncc(C#N)c(-c2c[nH]c3ncc(C(F)(F)F)cc23)n1)C1CCN(S(=O)(=O)C2CC2)CC1` (stereo not drawn) [Compound I-158, 2-(1-(1-(cyclopropylsulfonyl)piperidin-4-yl)ethylamino)-4-(5-(trifluoromethyl)-1H-pyrrolo[2,3-b]pyridin-3-yl)pyrimidine-5-carbonitrile], the Ki is less than 3 nM.

On to `N#Cc1cnc(NCC2CCOCC2)nc1-c1c[nH]c2ncc(C(F)(F)F)cc12` [Compound I-57, 2-((tetrahydro-2H-pyran-4-yl)methylamino)-4-(5-(trifluoromethyl)-1H-pyrrolo[2,3-b]pyridin-3-yl)pyrimidine-5-carbonitrile], for which the Ki fell in the range of 3 to 40 nM.

For the compound `CC(C)[C@H](CN1CCOCC1)Nc1ncc(C#N)c(-c2c[nH]c3ncc(C(F)(F)F)cc23)n1` [Compound I-128, 2-((R)-3-methyl-1-morpholinobutan-2-ylamino)-4-(5-(trifluoromethyl)-1H-pyrrolo[2,3-b]pyridin-3-yl)pyrimidine-5-carbonitrile], the Ki lay in the range of 3 to 40 nM.

With `COc1cccc(CNc2ncc(C#N)c(-c3c[nH]c4ncc(C(F)(F)F)cc34)n2)c1` [Compound I-20, 2-(3-methoxybenzylamino)-4-(5-(trifluoromethyl)-1H-pyrrolo[2,3-b]pyridin-3-yl)pyrimidine-5-carbonitrile], the Ki is more than 40 nM.

`CC(=O)NCCNc1ncc(C#N)c(-c2c[nH]c3ncc(C(F)(F)F)cc23)n1` [Compound I-40, N-(2-(5-cyano-4-(5-(trifluoromethyl)-1H-pyrrolo[2,3-b]pyridin-3-yl)pyrimidin-2-ylamino)ethyl)acetamide]: the Ki was more than 40 nM.

Take `CNc1ncc(C#N)c(-c2c[nH]c3ncc(C(F)(F)F)cc23)n1` [Compound I-2, 2-(methylamino)-4-(5-(trifluoromethyl)-1H-pyrrolo[2,3-b]pyridin-3-yl)pyrimidine-5-carbonitrile]: the Ki is more than 40 nM.

For `CCN(CC)CCN(C)c1ccc([C@@H](C)Nc2ncc(C#N)c(-c3c[nH]c4ncc(C(F)(F)F)cc34)n2)cn1` [Compound I-287, 2-((R)-1-(6-((2-(diethylamino)ethyl)(methyl)amino)pyridin-3-yl)ethylamino)-4-(5-(trifluoromethyl)-1H-pyrrolo[2,3-b]pyridin-3-yl)pyrimidine-5-carbonitrile], the Ki lay within 3 to 40 nM.

Turning to `C[C@@H](Nc1ncc(C#N)c(-c2c[nH]c3ncc(C(F)(F)F)cc23)n1)C1CCN(C(=O)[C@@H](N)[C@@H](C)O)CC1` [Compound I-242, 2-((R)-1-(1-((2S,3R)-2-amino-3-hydroxybutanoyl)piperidin-4-yl)ethylamino)-4-(5-(trifluoromethyl)-1H-pyrrolo[2,3-b]pyridin-3-yl)pyrimidine-5-carbonitrile], the Ki is less than 3 nM.

For `C[C@@H](Nc1ncc(C#N)c(-c2c[nH]c3ncc(C(F)(F)F)cc23)n1)c1ccc(N(C)C2CCN(C)C2)nc1` (stereo partly drawn) [Compound I-295, 2-((1R)-1-(6-(methyl(1-methylpyrrolidin-3-yl)amino)pyridin-3-yl)ethylamino)-4-(5-(trifluoromethyl)-1H-pyrrolo[2,3-b]pyridin-3-yl)pyrimidine-5-carbonitrile], the Ki is less than 3 nM.

As for `N#Cc1cnc(NC[C@@H](O)CO)nc1-c1c[nH]c2ncc(C(F)(F)F)cc12` [Compound I-115, 2-((R)-2,3-dihydroxypropylamino)-4-(5-(trifluoromethyl)-1H-pyrrolo[2,3-b]pyridin-3-yl)pyrimidine-5-carbonitrile], the Ki was in the range of 3 to 40 nM.

Consider `N#Cc1cnc(NCC2CCN(Cc3ccccc3)CC2)nc1-c1c[nH]c2ncc(C(F)(F)F)cc12` [Compound I-89, 2-((1-benzylpiperidin-4-yl)methylamino)-4-(5-(trifluoromethyl)-1H-pyrrolo[2,3-b]pyridin-3-yl)pyrimidine-5-carbonitrile], for which the Ki was more than 40 nM.

Consider `COc1ccc([C@@H](C)Nc2ncc(C#N)c(-c3c[nH]c4ncc(C(F)(F)F)cc34)n2)cc1` [Compound I-26, 2-((R)-1-(4-methoxyphenyl)ethylamino)-4-(5-(trifluoromethyl)-1H-pyrrolo[2,3-b]pyridin-3-yl)pyrimidine-5-carbonitrile], for which the Ki is less than 3 nM.

`N#Cc1cnc(Oc2ccccc2)nc1-c1c[nH]c2ncc(C(F)(F)F)cc12` [EG4, 2-Phenoxy-4-(5-(trifluoromethyl)-1H-pyrrolo[2,3-b]pyridin-3-yl)pyrimidine-5-carbonitrile]: the Ki is more than 40 nM.

For `CC(C)(Nc1ncc(C#N)c(-c2c[nH]c3ncc(Cl)cc23)n1)C(=O)NC1CCCC1` [IA-4, 2-(4-(5-chloro-1H-pyrrolo[2,3-b]pyridin-3-yl)-5-cyanopyrimidin-2-ylamino)-N-cyclopentyl-2-methylpropanamide], the Ki lay within 3 to 40 nM.

As for `CC(C)NC(=O)c1ccc([C@@H](C)Nc2ncc(C#N)c(-c3c[nH]c4ncc(C(F)(F)F)cc34)n2)cc1` [Compound I-172, 4-((1R)-1-(5-cyano-4-(5-(trifluoromethyl)-1H-pyrrolo[2,3-b]pyridin-3-yl)pyrimidin-2-ylamino)ethyl)-N-isopropylbenzamide], the Ki is 3 to 40 nM.

Consider `N#Cc1cnc(NC[C@H](O)CO)nc1-c1c[nH]c2ncc(C(F)(F)F)cc12` [Compound I-114, 2-((S)-2,3-dihydroxypropylamino)-4-(5-(trifluoromethyl)-1H-pyrrolo[2,3-b]pyridin-3-yl)pyrimidine-5-carbonitrile], for which the Ki is 3 to 40 nM.

Regarding `COc1ncc([C@@H](C)Nc2ncc(C#N)c(-c3c[nH]c4ncc(C(F)(F)F)cc34)n2)cn1` [Compound I-303, 2-(I-1-(2-methoxypyrimidin-5-yl)ethylamino)-4-(5-(trifluoromethyl)-1H-pyrrolo[2,3-b]pyridin-3-yl)pyrimidine-5-carbonitrile], the Ki is less than 3 nM.

For the compound `CC(C)Nc1ncc(C#N)c(-c2c[nH]c3ncc(C(F)(F)F)cc23)n1` [Compound I-3, 2-(isopropylamino)-4-(5-(trifluoromethyl)-1H-pyrrolo[2,3-b]pyridin-3-yl)pyrimidine-5-carbonitrile], the Ki is 3 to 40 nM.

For `CNC(=O)c1ccc([C@@H](C)Nc2ncc(C#N)c(-c3c[nH]c4ncc(C(F)(F)F)cc34)n2)cc1` [Compound I-163, 4-((1R)-1-(5-cyano-4-(5-(trifluoromethyl)-1H-pyrrolo[2,3-b]pyridin-3-yl)pyrimidin-2-ylamino)ethyl)-N-methylbenzamide], the Ki was less than 3 nM.

For `COC[C@@H](Nc1ncc(C#N)c(-c2c[nH]c3ncc(C(F)(F)F)cc23)n1)c1ccccc1` [Compound I-43, 2-((S)-2-methoxy-1-phenylethylamino)-4-(5-(trifluoromethyl)-1H-pyrrolo[2,3-b]pyridin-3-yl)pyrimidine-5-carbonitrile], the Ki was more than 40 nM.

Turning to `CC(=O)N1CCC([C@@H](C)Nc2ncc(C#N)c(-c3c[nH]c4ncc(C(F)(F)F)cc34)n2)CC1` [Compound I-134, 2-((R)-1-(1-acetylpiperidin-4-yl)ethylamino)-4-(5-(trifluoromethyl)-1H-pyrrolo[2,3-b]pyridin-3-yl)pyrimidine-5-carbonitrile], the Ki was less than 3 nM.

For the compound `CCCNc1ncc(C#N)c(-c2c[nH]c3ncc(C(F)(F)F)cc23)n1` [Compound I-93, 2-(propylamino)-4-(5-(trifluoromethyl)-1H-pyrrolo[2,3-b]pyridin-3-yl)pyrimidine-5-carbonitrile], the Ki was in the range of 3 to 40 nM.

In the case of `C[C@@H](Nc1ncc(C#N)c(-c2c[nH]c3ncc(C(F)(F)F)cc23)n1)c1ccc(Br)cc1` [Compound I-33, 2-((R)-1-(4-bromophenyl)ethylamino)-4-(5-(trifluoromethyl)-1H-pyrrolo[2,3-b]pyridin-3-yl)pyrimidine-5-carbonitrile], the Ki was more than 40 nM.

For the compound `C[C@H](CO)Nc1ncc(C#N)c(-c2c[nH]c3ncc(C(F)(F)F)cc23)n1` [Compound I-107, 2-((R)-1-hydroxypropan-2-ylamino)-4-(5-(trifluoromethyl)-1H-pyrrolo[2,3-b]pyridin-3-yl)pyrimidine-5-carbonitrile], the Ki was in the range of 3 to 40 nM.

With `N#Cc1cnc(NC2CCCCC2)nc1-c1c[nH]c2ncc(C(F)(F)F)cc12` [Compound I-10, 2-(cyclohexylamino)-4-(5-(trifluoromethyl)-1H-pyrrolo[2,3-b]pyridin-3-yl)pyrimidine-5-carbonitrile], the Ki lay in the range of 3 to 40 nM.

In the case of `CCCC(CCO)Sc1ncc(C#N)c(-c2c[nH]c3ncc(C(F)(F)F)cc23)n1` (stereo not drawn) [II-15, 2-(1-hydroxyhexan-3-ylthio)-4-(5-(trifluoromethyl)-1H-pyrrolo[2,3-b]pyridin-3-yl)pyrimidine-5-carbonitrile], the Ki is more than 40 nM.

With `C[C@@H](Nc1ncc(C#N)c(-c2c[nH]c3ncc(C(F)(F)F)cc23)n1)C1CCN(C(=O)[C@H](O)C(F)(F)F)CC1` [Compound I-230, 2-((R)-1-(1-((S)-3,3,3-trifluoro-2-hydroxypropanoyl)piperidin-4-yl)ethylamino)-4-(5-(trifluoromethyl)-1H-pyrrolo[2,3-b]pyridin-3-yl)pyrimidine-5-carbonitrile], the Ki was less than 3 nM.

With `CC[C@H](C)Nc1ncc(C#N)c(-c2c[nH]c3ncc(C(F)(F)F)cc23)n1` [Compound I-77, 2-(sec-butylamino)-4-(5-(trifluoromethyl)-1H-pyrrolo[2,3-b]pyridin-3-yl)pyrimidine-5-carbonitrile], the Ki lay in the range of 3 to 40 nM.
